In US20150126464A1, “THERAPEUTIC DRUG AND THERAPEUTIC METHOD FOR NEUROLOGICAL DISEASES INCLUDING ALZHEIMER'S DISEASE ASSOCIATED WITH 1,25D3-MARRS” (priority 2013, published 2015):

Experiments:
1,25D3-MARRS = target: T1, 1,25D3-MARRS (Rattus norvegicus, UniProt P11598); test: Detection of luminescence resulting from 1,25D3-MARRS binding (cell surface-binding DHVD3); settings: diosgenin 0.1 μM or 10 μM added with DHVD3 0.1 μM, 10 minutes
T1 construct: endogenous in cells; host or cells: primary cultured rat cortical neurons (SD, E17)
T1 sequence (P11598 25-505): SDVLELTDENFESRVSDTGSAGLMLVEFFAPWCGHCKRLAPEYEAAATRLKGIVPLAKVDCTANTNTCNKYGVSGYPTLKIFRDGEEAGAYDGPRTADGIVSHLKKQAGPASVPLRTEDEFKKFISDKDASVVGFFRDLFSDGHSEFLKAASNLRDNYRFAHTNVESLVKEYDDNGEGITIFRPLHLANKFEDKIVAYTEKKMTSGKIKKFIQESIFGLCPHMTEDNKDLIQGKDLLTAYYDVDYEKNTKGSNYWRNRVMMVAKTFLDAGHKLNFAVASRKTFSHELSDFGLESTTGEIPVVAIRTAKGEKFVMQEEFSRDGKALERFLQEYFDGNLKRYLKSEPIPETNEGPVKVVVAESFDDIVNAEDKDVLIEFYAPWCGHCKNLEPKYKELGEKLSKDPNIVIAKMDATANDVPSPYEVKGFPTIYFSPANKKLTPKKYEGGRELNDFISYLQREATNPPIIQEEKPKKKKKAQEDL
Source text: Embryos were removed from pregnant Sprague-Dawley rats (Japan SLC, Shizuoka, Japan) at 17 days of gestation. The cortices were dissected, and the dura mater was removed.
Primary cultured cortical neurons (SD, E17) were harvested into a 96-well white plate at a density of 0.5×10^5 cells/well. […] Horse radish peroxidase-conjugated goat anti-mouse IgG (1:2000) was used as a secondary antibody. The chemiluminescence of the antigen-antibody complex was detected using a GENios multi-plate reader (Tecan, Mannedorf, Zurich, Switzerland).

[1] = system: spinal cord injury (SCI) mice; test: Hindlimb motor function of spinal cord injury (SCI) mice (BMS, TMS); format: in vivo, mouse; settings: diosgenin 10 μmol/kg i.p. once a day for 7 days, vs vehicle
Experimental: In the spinal cord injury model test, 7-week-old female ddY mice (SLC) were used. The mice were maintained with free access to food and water in a controlled environment (22±2° C., 50±5% humidity, 12-h light/dark cycle starting at 7:00 am). A contusion was created by dropping a 3.0 g weight once onto an exposed first lumbar vertebrae (L1) of each mouse from a height of 3 cm using stereotaxic apparatus (made by Narishige). One hour after surgery, the mice were randomly divided into a vehicle solution-treated group and a diosgenin-treated group, and then drug administration was initiated.
Diosgenin (10 μmol/kg) was intraperitoneally administered to SCI mice once a day for 7 days.
One hour after the last administration in Example 13 and Comparative Example 17, each mouse was moved to an open field (23.5 cm×16.5 cm×12.5 cm) and observed for behavior evaluation for 5 minutes. The locomotion behavior in the open field was evaluated using the Basso Mouse Scale (BMS), which is a general standard for evaluation of the hindlimb function of SCI model mice (FIG. 14A), and a 0-18-point Toyama Mouse Scale (TMS), which is a modified BMS devised by the inventors for better test accuracy, (FIG. 14B).
The new Toyama Mouse Scale (TMS), which is a modified BMS devised by the inventors for better test accuracy, was used in the hindlimb function of SCI mice.

[2] = system: rat cortical neurons (SD E18); test: Axon density after Aβ (1-42)-induced axonal atrophy with 1,25D3-MARRS neutralizing antibody; format: cell-based; settings: after Aβ (1-42) for 3 days; Ab099 clone 1:500; diosgenin 0.1 μM or 1 μM for 5 days
Experimental: Aβ (1-42) was incubated at 37° C. for four days for aggregation beforehand. […] After the 3-day treatment, a control antibody (normal rabbit IgG, 1:5000) was added to the cells, and the cells were incubated for 10 minutes and further treated with diosgenin (0.1 μM) for 5 days.
Seven to nine images were captured.

immunochemiluminescence intensity of cell surface-bound DHVD3 (replacement of DHVD3) (1,25D3-MARRS): remarkably decreased
Compound: C[C@@H]1CC[C@@]2(OC1)O[C@H]1C[C@H]3[C@@H]4CC=C5C[C@@H](O)CC[C@]5(C)[C@H]4CC[C@]3(C)[C@H]1[C@@H]2C [diosgenin]
hindlimb motor function (BMS and TMS) [1]: improved hindlimb motor function
diosgenin-induced axonal growth in cells where 1,25D3-MARRS was inhibited by the neutralizing antibody [2]: significantly suppressed
